Tests used:
[1] = design: method as in earlier work; conditions: ultrafiltration, human pooled plasma; ref 30 and 34 (table), 32 and 36; cited from earlier work
human MCHR1 = target: T1, human MCHR1 (Homo sapiens, UniProt Q99705); test: Kinetic real-time cell-binding study (LigandTracer) on CHO-K1-hMCHR1 cells; type: cell-based; conditions: for observed association rate constant (kobs): CHO-K1-hMCHR1 cells, ambient temperature, radiotracer 0.05–1000 nM, mean ± SEM; for accumulation on CHO-K1-hMCHR1 cells: real-time cell binding, result in words
T1 construct: host or cells: CHO-K1
T1 sequence (Q99705 whole entry): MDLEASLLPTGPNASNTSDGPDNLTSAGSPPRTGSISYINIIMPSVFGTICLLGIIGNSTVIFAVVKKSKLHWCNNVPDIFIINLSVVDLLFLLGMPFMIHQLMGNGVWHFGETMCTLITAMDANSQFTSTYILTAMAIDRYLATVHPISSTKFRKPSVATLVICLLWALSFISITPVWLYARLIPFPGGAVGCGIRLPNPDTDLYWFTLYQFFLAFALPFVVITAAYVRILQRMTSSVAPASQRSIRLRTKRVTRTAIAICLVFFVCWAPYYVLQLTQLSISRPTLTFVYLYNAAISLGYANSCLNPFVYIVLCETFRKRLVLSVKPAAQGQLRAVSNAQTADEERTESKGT
Experimental: (§1) Kinetic real-time cell-binding studies were performed on adherent Chinese hamster ovary (CHO-K1) cells (negative control) and CHO-K1 cells stably expressing the human MCHR1 or MCHR2 (PerkinElmer®; Waltham, MA, USA) with [^11C]SNAP-7941 and [^18F]FE@SNAP as previously reported. The cells were cultured in Ham’s F-12 medium (Gibco®, Life Technologies) with additives (1 % penicillin-streptomycin-glutamine (PSG), 10 % fetal bovine serum (FBS), and 300-μg/m Geneticin (G-418)) and incubated in a humidified 5 % CO2 atmosphere at 37 °C. For the preparation of the binding experiment, approximately 10^6 cells were seeded as a monolayer on the bottom of a tilted cell culture dish (100 mm × 20 mm, CELLSTAR®, Greiner Bio-One) and incubated with 2-ml medium for 24 h to avoid a spreading of the cells over the whole Petri dish. In the next step, the medium was discarded and the Petri dish was placed in a horizontal position with 10-ml medium for additional 24 h. Afterwards, the binding experiment was performed at ambient temperature with LigandTracer® Yellow (Ridgeview Instruments AB, Uppsala, Sweden) using 3-ml fresh medium (Ham’s F-12, serum-free). Unspecific radiotracer uptake was determined with native CHO-K1 cells. The experiments were initiated with baseline measurements for 10–15 min followed by radioligand incubation of [^11C]SNAP-7941 and [^18F]FE@SNAP. Binding to the seeded cells was ensured by adding different concentrations of the radiotracer (0.05–1000 nM). Association-time curves were monitored in real-time until the binding equilibrium was achieved. The observed rate constant of the association reaction (kobs) was determined using non-linear regression curve fitting algorithms implemented in GraphPad Prism 6.0 (GraphPad Software, Inc., San Diego, CA, USA), as previously reported. Cell survival was continuously examined using the perimeter trace (signal vs. dish position) of the LigandTracer® 1.0.1 software (Ridgeview Instruments AB, Uppsala, Sweden).

human MCHR2 = target: T2, human MCHR2 (Homo sapiens, UniProt Q969V1); test: Kinetic real-time cell-binding study (LigandTracer) on CHO-K1-hMCHR2 cells; type: cell-based; conditions: for Selectivity over MCHR2: CHO-K1-hMCHR1 vs CHO-K1-hMCHR2 living cells, Yes/No; for accumulation on CHO-K1-hMCHR2 cells: real-time cell binding, result in words
T2 construct: host or cells: CHO-K1
T2 sequence (Q969V1 whole entry): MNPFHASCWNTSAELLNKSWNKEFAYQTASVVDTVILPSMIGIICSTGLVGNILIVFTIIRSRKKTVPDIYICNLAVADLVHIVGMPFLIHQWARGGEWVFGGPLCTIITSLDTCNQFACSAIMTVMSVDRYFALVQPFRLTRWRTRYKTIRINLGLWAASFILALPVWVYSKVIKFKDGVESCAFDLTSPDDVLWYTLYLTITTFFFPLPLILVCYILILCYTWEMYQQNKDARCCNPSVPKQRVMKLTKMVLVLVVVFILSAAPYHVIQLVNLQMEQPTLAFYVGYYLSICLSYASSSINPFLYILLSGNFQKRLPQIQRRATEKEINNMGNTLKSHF
Experimental: as §1

MCHR1 [2] = target: T3, MCHR1 (Rattus norvegicus, UniProt P97639); test: Ex vivo biodistribution, vehicle vs displacement with (±)-SNAP-7941; type: in vivo; conditions: 15 mg/kg (±)-SNAP-7941
T3 construct: from tissue; host or cells: living Sprague-Dawley rats (PET) and their organs after sacrifice
T3 sequence (P97639 whole entry): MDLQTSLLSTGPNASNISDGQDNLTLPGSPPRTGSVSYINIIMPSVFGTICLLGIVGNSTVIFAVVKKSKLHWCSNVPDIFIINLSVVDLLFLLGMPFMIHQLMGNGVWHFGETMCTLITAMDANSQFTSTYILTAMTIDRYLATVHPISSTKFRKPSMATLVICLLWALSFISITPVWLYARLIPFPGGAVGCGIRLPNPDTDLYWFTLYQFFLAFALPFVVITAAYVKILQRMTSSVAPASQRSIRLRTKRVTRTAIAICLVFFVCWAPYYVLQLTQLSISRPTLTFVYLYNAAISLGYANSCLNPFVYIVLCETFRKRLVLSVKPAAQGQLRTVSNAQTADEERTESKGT
Source text: After the imaging studies, the animals were sacrificed by decapitation; blood and tissues were removed and collected in tubes, weighed, and subjected to radioactivity measurements in a Gamma Counter (2480 WIZARD^2, PerkinElmer, Waltham, MA, USA). Values were normalized to the applied dose, the organ, and body weight and expressed as the standardized uptake value (SUV [g/ml]).

MCHR1 [3] = target: MCHR1; design: method as in PMID 28808288; conditions: previous experiments; read-out: Affinity to MCHR1 (Ki); cited from earlier work
[4] = target: T4, human serum albumin (HSA) (Homo sapiens, UniProt P02768); test: Plasma protein binding using bioaffinity chromatography (CHIRALPAK HSA); type: in vitro ADME; conditions: human; bioaffinity chromatography on HSA stationary phase; read-out: Plasma protein binding (%PPB) / Binding to human serum albumin (converted)
T4 construct: purchased Daicel Chemical Industries CHIRALPAK HSA, column-batch H13L-2405
T4 sequence (P02768 25-609): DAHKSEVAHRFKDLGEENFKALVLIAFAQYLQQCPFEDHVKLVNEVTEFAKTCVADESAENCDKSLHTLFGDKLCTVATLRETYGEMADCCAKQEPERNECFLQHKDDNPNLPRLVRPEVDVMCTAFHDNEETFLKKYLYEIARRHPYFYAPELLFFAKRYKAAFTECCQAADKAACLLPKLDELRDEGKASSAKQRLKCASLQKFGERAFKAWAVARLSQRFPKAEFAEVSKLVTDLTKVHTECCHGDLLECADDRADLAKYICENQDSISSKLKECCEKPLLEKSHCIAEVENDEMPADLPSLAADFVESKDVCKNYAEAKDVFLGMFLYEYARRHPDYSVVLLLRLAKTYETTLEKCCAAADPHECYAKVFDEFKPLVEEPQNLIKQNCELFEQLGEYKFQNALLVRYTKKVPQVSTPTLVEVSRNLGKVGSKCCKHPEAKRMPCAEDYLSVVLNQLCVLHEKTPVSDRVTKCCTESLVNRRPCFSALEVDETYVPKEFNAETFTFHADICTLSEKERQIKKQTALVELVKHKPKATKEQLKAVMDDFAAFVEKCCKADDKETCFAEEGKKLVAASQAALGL
Experimental: The binding of (±)-SNAP-7941 and FE@SNAP to human serum albumin (HSA) was examined by bioaffinity chromatography according to a previously published manuscript. In short, the analytes were diluted in 2-propanol and ammonium acetate buffer (0.5 mg/ml) and injected on the CHIRALPAK®HSA stationary phase (50 × 3 mm, 5 μm pore size, column-batch: H13L-2405, Daicel Chemical Industries, West Chester, PA, USA). Prior the experiments, the column was calibrated with reference standards, and the resulting regression equation was used to convert the logarithmic capacity factors (log(k′)) to the percent of plasma protein binding (%PPB). The calibration curves, as well as the experiments, were performed by triplicate injections and at least three times.

Structure (SMILES) | Plasma free fraction (human) [1] [%] | observed association rate constant (kobs) (human MCHR1) [min⁻¹] | accumulation on CHO-K1-hMCHR1 cells (human MCHR1) | Selectivity over MCHR2 (human MCHR2) | observed association rate constant (kobs) (human MCHR2; CHO-K1-hMCHR2 cells, ambient temperature, radiotracer 0.05–1000 nM, mean ± SEM) [min⁻¹] | accumulation on CHO-K1-hMCHR2 cells (human MCHR2) | difference in colon uptake between vehicle and displacement groups (MCHR1 [2]) | difference in eye uptake between vehicle and displacement groups (MCHR1 [2]) | difference in pancreas uptake between vehicle and displacement groups (MCHR1 [2]) | overall biodistribution: uptake in target regions after displacement (MCHR1 [2]) | Ki (MCHR1 [3]) [nM] | fraction unbound at 0.5 mg/ml [4]
COCC1=C(C(=O)OCC[18F])C(c2ccc(F)c(F)c2)N(C(=O)NCCCN2CCC(c3cccc(NC(C)=O)c3)CC2)C(=O)N1 (centres unmarked) [[^18F]FE@SNAP] | 12.6 ± 0.2 | 0.0859 ± 0.0028 | high accumulation | No | 0.0918 ± 0.0031 | exhibited accumulation | no statistically significant difference | significant differences | significant differences | decreased uptake | 9.98 ± 1.12 | 0.23
COCC1=C(C(=O)O[11CH3])C(c2ccc(F)c(F)c2)N(C(=O)NCCCN2CCC(c3cccc(NC(C)=O)c3)CC2)C(=O)N1 (centres unmarked) [[^11C]SNAP-7941] | 20.96 ± 1 | 0.0629 ± 0.0020 | high accumulation | Yes | – | negligible accumulation | Statistically significant differences | Statistically significant differences | Statistically significant differences | decreased uptake | 3.91 ± 0.74 | 0.2

Source: publication PMC6449294, “SNAPshots of the MCHR1: a Comparison Between the PET-Tracers [^18F]FE@SNAP and [^11C]SNAP-7941” (Molecular Imaging and Biology, 2018)
